From patent publication US7186534B1 (The Trustees of Columbia University in the City of New York, priority 1997, dated 2007)

Legend:
mouse 9cRDH [1] = target: T1, mouse 9cRDH (Mus musculus, UniProt O55240); test: Inhibition of recombinant mouse 9cRDH activity (9-cis-retinol oxidation, CHO cell homogenate, HPLC); type: biochemical; conditions: for inhibition of mouse 9cRDH activity (in words): 10 μM 9-cis-retinol
T1 sequence (O55240 1-318): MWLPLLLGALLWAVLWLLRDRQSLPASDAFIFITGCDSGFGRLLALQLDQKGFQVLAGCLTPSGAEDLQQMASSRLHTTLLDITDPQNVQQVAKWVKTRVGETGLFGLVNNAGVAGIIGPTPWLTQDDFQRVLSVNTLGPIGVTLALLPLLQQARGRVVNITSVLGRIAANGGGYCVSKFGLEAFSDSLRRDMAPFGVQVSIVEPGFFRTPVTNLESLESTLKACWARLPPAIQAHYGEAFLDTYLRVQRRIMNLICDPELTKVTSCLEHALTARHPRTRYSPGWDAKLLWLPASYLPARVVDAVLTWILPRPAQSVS

[2] = target: T2, human 9-cis retinol dehydrogenase (9cRDH) (Homo sapiens, UniProt Q92781); test: Inhibition of recombinant human 9cRDH activity (9-cis-retinol oxidation, CHO cell homogenate, HPLC); type: biochemical
T2 sequence (Q92781 1-318): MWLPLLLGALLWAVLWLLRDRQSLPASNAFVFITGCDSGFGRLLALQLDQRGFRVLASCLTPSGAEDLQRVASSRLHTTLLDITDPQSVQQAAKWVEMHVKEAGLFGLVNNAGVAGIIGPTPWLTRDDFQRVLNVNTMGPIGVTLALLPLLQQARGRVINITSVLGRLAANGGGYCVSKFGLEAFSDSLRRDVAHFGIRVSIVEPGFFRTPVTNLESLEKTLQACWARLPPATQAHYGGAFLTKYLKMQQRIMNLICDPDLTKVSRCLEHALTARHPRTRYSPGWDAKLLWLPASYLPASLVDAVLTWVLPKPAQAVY

[3] = Isomerization of retinoic acids in the human 9-cis retinol dehydrogenase assay; type: physicochemical; conditions: for 9-cis isomer present at end of assay / 13-cis isomer present at end of assay / all-trans isomer present at end of assay: 37° C., 15 minutes; for final concentration of 13-cis-retinoic acid formed by isomerization: 10 μM retinoic acid, end of the 15 minute assay
Protocol: Inhibition Studies of 9cRDH Activity. For the inhibition experiments, each potential inhibitor tested was added to the recombinant 9cRDH in 5 μl of ethanol in the presence of 2 mM NAD^+, 10 mM Hepes, pH 8.0, containing 150 mM KCl, 1 mM EDTA, and 50 μg phosphotidyl choline (assay incubation mixture lacking the retinoid substrate). This mixture was allowed to sit on ice for 5 minutes prior to adding substrate. Upon addition of 10 μM 9-cis-retinol (final concentration), the mixture was incubated for 15 minutes at […] with agitation and extracted as described above for the standard enzyme assay. HPLC Procedures. Stereoisomers of both retinol and retinaldehyde were separated on a 4.6×15-mm Supelco (Belefonte, Pa.) LC-SI Supelcosil™ column using hexane:ethyl acetate:butanol (96.9:3:0.1 v/v) as the mobile phase flowing at 0.8 ml/min. A silica guard column (Supelco) preceded the running column. Retinols and retinaldehydes were detected using a Waters 996 Photodiode array detector at absorbances of 325 and 365 nm, respectively. Retention times for all-trans-, 9-cis-, 11-cis-, and 13-cis-retinols and corresponding retinaldehydes were established using the purified compounds obtained as described above. Quantities of each retinol and retinaldehyde isomer present in extracts were determined by comparisons of the integrated areas under the HPLC peaks with a standard curve constructed relating integrated peak area with known masses of each retinoid isomer. The concentration of each retinoid isomer were determined by UV-visible spectrophotometry using published extinction coefficients for each retinol, retinaldehyde or retinoic acid isomer (25).
To test this possibility, the degree of isomerization of retinoic acid which occurs under the assay conditions was measured.

[4] = target: rat liver and human prostate 17β-hydroxysteroid dehydrogenase (identical to retinol dehydrogenase, type I); conditions: cited from earlier work
visual cycle = conditions: administration to frogs; cited from earlier work
[5] = target: human alcohol dehydrogenase type IV (Homo sapiens, UniProt P40394); conditions: cited from earlier work
Sequence of human alcohol dehydrogenase type IV (P40394 whole entry): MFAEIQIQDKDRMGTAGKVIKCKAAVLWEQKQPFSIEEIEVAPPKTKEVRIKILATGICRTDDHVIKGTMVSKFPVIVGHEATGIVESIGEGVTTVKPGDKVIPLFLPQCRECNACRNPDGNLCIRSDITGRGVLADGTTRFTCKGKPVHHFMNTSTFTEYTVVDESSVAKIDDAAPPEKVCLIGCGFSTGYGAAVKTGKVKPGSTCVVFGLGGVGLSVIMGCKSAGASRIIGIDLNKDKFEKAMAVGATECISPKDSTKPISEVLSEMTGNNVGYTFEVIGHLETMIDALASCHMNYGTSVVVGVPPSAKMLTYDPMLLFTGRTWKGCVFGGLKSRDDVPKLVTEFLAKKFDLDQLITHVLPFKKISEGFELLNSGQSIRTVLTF

[6] = animals and humans receiving 13-cis-retinoic acid pharmacologically; cited from earlier work
mouse 9cRDH [7] = target: T1, mouse 9cRDH; test: Hydroxysteroid oxidation/reduction by mouse 9cRDH (TLC); type: biochemical; conditions: 37° C., 1.5 h; TLC detection limit approximately 3 pmol/min/mg protein
Protocol: (§1) To investigate whether human or mouse 9cRDH will catalyze oxidations or reductions of 3α-hydroxy-, 11β-hydroxy- or 17β-hydroxysteroids, these steroids were incubated at 37° C. for 1.5 h in the assay media described above for assessing oxidation/reduction of 9-cis-retinol/9-cis-retinaldehyde. The Hepes NAD^+-containing assay buffer described above was employed to assess hydroxysteroid oxidation and to assess hydroxysteroid reduction the acetate buffer containing NADH (or NADPH) assay buffer (see above) was employed. Immediately following incubation, the steroids were extracted as described above for retinoids. The final hexane extract was evaporated to near dryness and this was spotted onto a silica high performance TLC plate (Whatman Inc., Clifton, N.J.) and developed in hexane/diethyl ether/acetic acid (70:30:1, v/v) or ethyl acetate/chloroform (25:75, v/v). Steroids were visualized by charring after treatment of the TLC plates with an areosol of 10% (v/v) H2SO4 in methanol.
(§2) Biswas and Russell (32) have reported that rat liver all-trans-retinol dehydrogenase type I also uses several 3α-hydroxy- and 17β-hydroxysteroids as substrates. Chai et al. (18) also reported that hydroxysteroids are substrates for mouse liver cis-retinol dehydrogenase. Since human 9cRDH is approximately 50% identical to the rat liver enzymes and shares approximately 63% homology to mouse liver cis-retinol dehydrogenase, next investigated was whether these steroids might also be substrates for 9cRDH. To test this possibility it was determined whether human or mouse 9cRDH would catalyze oxidation of 5α-androstan-3α, 17β-diol, androsterone, testosterone or dihydrotestosterone to corresponding ketone products. Also investigated was whether human and/or mouse 9cRDH could catalyze reduction of the corresponding ketones. […] It is estimate, based on the lower limits for hydroxysteroid detection by TLC, that it would be possible to detect rates of hydroxysteroid oxidation as low as approximately 3 pmol/min/mg protein. This rate of hydroxysteroid oxidation is at least 2-orders of magnitude lower than Vmax values reported by Biswas and Russell (32) and Chai et al. (18) for oxidation of hydroxysteroids in their studies of enzymes that are able to oxidize both retinol and hydroxysteroids.

human 9cRDH = target: T3, human 9cRDH (Homo sapiens, UniProt Q92781); test: Hydroxysteroid oxidation/reduction by human 9cRDH (TLC); type: biochemical; conditions: 37° C., 1.5 h; TLC detection limit approximately 3 pmol/min/mg protein
T3 sequence (Q92781 1-318): T2 sequence (Q92781 1-318)
Protocol: as §1, §2

[8] = 1 μM 13-cis Retinoic Acid at start
[9] = 10 μM steroid, equimolar to substrate, forward (retinol oxidation) or reverse (retinaldehyde reduction) direction

CC1=C(/C=C/C(C)=C\C=C\C(C)=C\C(=O)O)C(C)(C)CCC1 [9-cis Retinoic Acid, 9-cis-retinoic acid]
inhibition of mouse 9cRDH activity (in words) (mouse 9cRDH [1]): very potent inhibitors
times (fold) less potent than 13-cis retinoic acid as inhibitor of 9cRDH [2]: 18
inhibition of human 9cRDH activity (in words) ([2]; 10 μM 9-cis-retinol, listed as 9-cis retinoic acid): potent inhibitors
inhibition of human 9cRDH activity (in words) ([2]; 10 μM 9-cis-retinol, listed as 9-cis-retinoic acid): very potent inhibitors
inhibition of 9cRDH activity ([2]; 10 μM retinoic acid): 81%
9-cis isomer present at end of assay ([3]; 10 μM retinoic acid at start): 94.7%
13-cis isomer present at end of assay ([3]; 10 μM retinoic acid at start): 1.1%
all-trans isomer present at end of assay ([3]; 10 μM retinoic acid at start): 4.2%
13-cis isomer present at end of assay ([3]; 10 μM retinoic acid at start, listed as 9-cis-retinoic acid): ~1.1%
final concentration of 13-cis-retinoic acid formed by isomerization [3]: approximately 0.1 μM
Ki [4]: 400 nM

CC1=C(/C=C/C(C)=C/C=C/C(C)=C\C(=O)O)C(C)(C)CCC1 [13-cis Retinoic Acid, 13-cis-retinoic acid]
concentration at which mouse 9cRDH is potently inhibited (mouse 9cRDH [1]): 0.05 µM
inhibition of mouse 9cRDH activity (in words) (mouse 9cRDH [1]): very potent inhibitors
IC50 (mouse 9cRDH [1]; substrate concentration 10 μM, read-out: Inhibitor concentration giving approximately 50% inhibition of m9cRDH activity): ~150 nM
block of the visual cycle in vivo (in words) (visual cycle): block the visual cycle
concentration at which human 9cRDH is potently inhibited [2]: 0.05 µM
expected inhibition of h9cRDH activity ([2]; 0.1 μM 13-cis-retinoic acid present for the full 15 minute incubation): 40–50%
inhibition of human 9cRDH activity (in words) ([2]; 10 μM 9-cis-retinol, listed as 13-cis retinoic acid): potent inhibitors
inhibition of human 9cRDH activity (in words) ([2]; 10 μM 9-cis-retinol, listed as 13-cis-retinoic acid): very potent inhibitors
13-cis isomer present at end of assay [3, 8]: 98.4%
all-trans isomer present at end of assay [3, 8]: 1.6%
inhibition of purified human alcohol dehydrogenase type IV (in words) [5]: in vitro inhibition
concentrations reached in the blood and tissues [6]: ≥ 10 µM
Ki [4]: 4000 nM

CC1=C(/C=C/C(C)=C/C=C/C(C)=C/C(=O)O)C(C)(C)CCC1 [all-trans Retinoic Acid, all-trans-retinoic acid]
inhibition of mouse 9cRDH activity (in words) (mouse 9cRDH [1]): very potent inhibitors
block of the visual cycle in vivo (in words) (visual cycle): block the visual cycle
times (fold) less potent than 13-cis retinoic acid as inhibitor of 9cRDH [2]: 30
IC50 ([2]; 10 μM 9-cis-retinol, 15 min, 37° C., CHO cell homogenate, read-out: Estimated inhibitor concentration resulting in 50% inhibition of human 9-cis retinol dehydrogenase activity (ID50)): 4.6 µM
inhibition of human 9cRDH activity (in words) ([2]; 10 μM 9-cis-retinol, listed as all-trans retinoic acid): potent inhibitors
inhibition of human 9cRDH activity (in words) ([2]; 10 μM 9-cis-retinol, listed as all-trans-retinoic acid): very potent inhibitors
inhibition at 10 µM ([2]; 10 μM retinoic acid): 66%
9-cis isomer present at end of assay ([3]; 10 μM retinoic acid at start): 0.4%
13-cis isomer present at end of assay ([3]; 10 μM retinoic acid at start): 0.8%
all-trans isomer present at end of assay ([3]; 10 μM retinoic acid at start): 98.8%
13-cis isomer present at end of assay ([3]; 10 μM retinoic acid at start, listed as all-trans-retinoic acid): approximately 1%
final concentration of 13-cis-retinoic acid formed by isomerization [3]: approximately 0.1 μM

C[C@]12CC[C@H]3[C@@H](CCC4=CC(=O)CC[C@@]43C)[C@@H]1CC[C@@H]2O [testosterone]
inhibition of mouse 9cRDH activity by hydroxysteroids (mouse 9cRDH [1]; [9]): none of these hydroxysteroids inhibited
inhibition of human 9cRDH activity by hydroxysteroids [2, 9]: none of these hydroxysteroids inhibited
catalysis by mouse 9cRDH of hydroxysteroid oxidation to ketone products (or reduction of the corresponding ketones) (mouse 9cRDH [7]): Neither human nor mouse 9cRDH were found to catalyze
catalysis by human 9cRDH of hydroxysteroid oxidation to ketone products (or reduction of the corresponding ketones) (human 9cRDH): Neither human nor mouse 9cRDH were found to catalyze
